{
  "source": "paper PMC7717705",
  "about": "“Topoisomerases inhibition and DNA binding mode of daunomycin–oligoarginine conjugate” (Journal of Enzyme Inhibition and Medicinal Chemistry, 2020)",
  "key": {"h-TopoIIα": {"system": "h-TopoIIα", "assay": "h-TopoIIα DNA relaxation assay (negatively supercoiled pBs plasmid, agarose gel)", "assay_type": "biochemical, human", "conditions": "drug 1.2 μM; h-TopoIIα 0.4 units; pBs 7.5 nM; drug-DNA pre-incubation 10 min at 4 °C, then 30 min at 30 °C; pH 7.9, 1 mM ATP; 1.2% agarose gel, ethidium bromide; three independent assays", "experimental": "(§1) Human topoisomerase IIα (h-TopoIIα) was purchased from Affymetrix (product number 78303) and stored at −20 °C. Human Topoisomerase I (Sigma, St. Louis, MO). pBluescript (pBs) negatively supercoiled plasmid was directly extracted from an over-night E. coli cell culture by Invitrogen HiPure Plasmid Midi prep Kit according to the instruction of the manufacturers.\n(§2) DNA relaxation assays were performed as previously described[24]^,[25] using the negative supercoiled pBluScript plasmid (pBS) purified from Escherichia coli as a substrate of DNA topoisomerases.\nFor h-TopoII-α assay the enzyme (0.4 units) was incubated for 30 min at 30 °C with negatively supercoiled pBS plasmid (7.5 nM), in a final volume of 20 µl of 1× reaction Buffer (10 mM Tris-HCl, pH 7.9, 50 mM NaCl, 50 mM KCl, 0.1 mM EDTA, 5 mM MgCl2, 15 µg/ml BSA, 1 mM ATP). […]\n(§3) All reactions were stopped by the addition of SDS to a final concentration of 1% and the products were analysed by electrophoresis on a 1.2% agarose gel in presence of 0.5X Tris-Borate EDTA buffer. […] Finally the DNA bands were visualised using a BioRad Versadoc imaging system and quantified by Quantity One® software. The relative intensity of each band in the experiment was measured and used to calculate the amount of total DNA and the fraction of total products. For each condition the relaxation activity was expressed as a percentage of DNA products on total DNA[26]."}, "h-TopoI": {"system": "h-TopoI", "assay": "h-TopoI DNA relaxation assay (negatively supercoiled pBluescript plasmid, agarose gel)", "assay_type": "biochemical, human", "conditions": "drug 1.2 uM (not saturating); h-TopoI 100 nM; plasmid 7.5 nM; drug-DNA pre-incubation 10 min at 4 °C, then 60 min at 37 °C; pH 7.0; 1.2% agarose gel, ethidium bromide", "experimental": "as §1, §2\nFor h-TopoI assay the enzyme (100 nM), was incubated for 60 min at 37 °C with negatively supercoiled pBluescript plasmid (7.5 nM) in a final volume of 20 µL of 1X reaction Buffer (10 mM Tris-HCl, pH 7.0, 100 mM NaCl, 0.1 mM NaEDTA, 10 mM MgCL2 and 50 µg/ml BSA). […]\nas §3"}, "[1]": {"assay": "Fluorescence emission spectrum", "assay_type": "physicochemical", "conditions": "drug 10 µM in 20 mM Tris buffer, pH 7.5; λ = 500–750 nm", "experimental": "(§4) Fluorescence measurements of Dau and Dau-Arg6 were carried out with a JASCO spectrofluorimeter (FP8200) using Quartz cells of 1 cm. Spectra were recorded at drug concentration of 10 µM in a final volume of 1 ml of 20 mM Tris buffer (pH 7.5)."}, "DNA plasmid (pBs)": {"system": "DNA plasmid (pBs)", "assay": "Fluorescence quenching titration with plasmid DNA", "assay_type": "binding", "conditions": "drug 10 µM, pBs plasmid 5 to 40 nM, 20 mM Tris pH 7.5, 5 min equilibrium, room temperature", "experimental": "as §4\nFor quenching experiment fluorescence titrations were conducted by keeping the concentration of drugs constant and varying the concentration of pBs plasmid from 5 to 40 nM. The spectroscopic measurements were recorded after 5 min to reach the equilibrium between the drugs and DNA. The spectra were recorded at room temperature in the wavelengths range of λ = 500–700 nm."}, "Calf Thymus-DNA (ctDNA)": {"system": "Calf Thymus-DNA (ctDNA)", "assay": "DNA thermal melting monitored by circular dichroism", "assay_type": "binding", "conditions": "4 µM drug, ctDNA 0.2 mg/mL, Tris–HCl buffer, λ = 260 nm", "experimental": "Melting studies were performed on a JascoJ-810 spectropolarimeter as described above by raising the temperature from 5 to 90 °C in 1 °C/min increments using a circulating water bath and monitoring the profiles at λ = 260 nm.\nThe DNA thermal melting was measured by monitoring the changes of HT[V] signal with temperature. Melting temperatures (Tm) were determined for each transition data by fitting sigmoidal curves using Boltzmann equations and obtaining good R-squared values (>0.95)."}, "Calf Thymus DNA (ctDNA)": {"system": "Calf Thymus DNA (ctDNA)", "assay": "Circular dichroism / induced circular dichroism (ICD) of ctDNA", "assay_type": "binding", "experimental": "Circular dichroism (CD) measurements were performed on a JascoJ-810 spectropolarimeter using a 0.1 cm path-length quartz cuvette at room temperature and the following parameters: three scans at a speed of 20 nm/min, 3 accumulations, 4 s time constant, 1 nm band width and 0.2 nm data pitch.\nThe spectral bandwidth was set up at 1 nm in the wavelength range of λ = 225–300 nm. The CD spectra of Calf Thymus DNA (ctDNA; 0.2 mg/mL) with or without drug (at selected concentrations) were measured under a nitrogen atmosphere using a 10 mM Tris-HCl buffer at pH 7.5. Results are presented as a mean of three scans and the buffer background was electronically subtracted from each measurement.\nICD measurements were recorded by keeping the concentration of ctDNA constant (0.2 mg/mL) and increasing drugs concentrations from 0 to 120 µM."}},
  "data": [
    {"smiles": "COc1cccc2c1C(=O)c1c(O)c3c(c(O)c1C2=O)C[C@@](O)(C(C)=O)C[C@@H]3O[C@H]1C[C@H](N)[C@H](O)[C@H](C)O1", "note": "[Dau, daunomycin]", "values": [
      {"measurement": "inhibition of the total h-TopoIIα activity (DNA relaxation)", "setting": "h-TopoIIα", "value": 50, "unit": "%"},
      {"measurement": "inhibition of the TopoI activity (DNA relaxation)", "setting": "h-TopoI", "value": 20, "unit": "%"},
      {"measurement": "emission maximum λmax", "setting": "[1]", "value": 596, "unit": "nm"},
      {"measurement": "fluorescence intensity on titration with DNA plasmid", "setting": "DNA plasmid (pBs)", "value": "decreases with increasing concentration of DNA"},
      {"measurement": "melting temperature (Tm) of ctDNA with drug", "setting": "Calf Thymus-DNA (ctDNA); 5 to 90 °C at 1 °C/min, Boltzmann fit, ctDNA alone 81.3 °C", "value": 90.3, "unit": "°C"},
      {"measurement": "increase in melting temperature of ctDNA", "setting": "Calf Thymus-DNA (ctDNA); versus ctDNA without drugs (81 °C)", "value": "about 9 °C"},
      {"measurement": "DNA binding mode", "setting": "Calf Thymus DNA (ctDNA); CD studies with ctDNA 0.2 mg/mL, 10 mM Tris-HCl pH 7.5", "value": "mainly by intercalation"},
      {"measurement": "change of negative CD band of ctDNA at λ = 245 nm", "setting": "Calf Thymus DNA (ctDNA); ctDNA 0.2 mg/mL, 10 mM Tris-HCl pH 7.5, room temperature, increasing drug concentration, mean of three scans", "value": "shifting to zero level"}
    ]}
  ]
}
